What was measured:
barnyard grass [1] = test: Test Example 5: herbicidal effect by foliage application, plastic box (Table 20, symbol H); format: in vivo, barnyard grass (Echinochloa crus-galli); settings: evaluated three weeks after application
How it was run: (§1)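 Post-emergence foliar test in sterilized diluvial soil. Compound applied as water-diluted emulsion at a predetermined rate to 14-day-old plants; evaluation at three weeks.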

southern crabgrass [2] = test: Test Example 5: herbicidal effect by foliage application, plastic box (Table 20, symbol F); format: in vivo, southern crabgrass (Digitaria ciliaris); settings: evaluated three weeks after application
How it was run: as §1

lambsquarters [3] = test: Test Example 5: herbicidal effect by foliage application, plastic box (Table 20, symbol O); format: in vivo, lambsquarters (Chenopodium album); settings: evaluated three weeks after application
How it was run: as §1

velvetleaf [4] = test: Test Example 5: herbicidal effect by foliage application, plastic box (Table 20, symbol M); format: in vivo, velvetleaf (Abutilon theophrasti); settings: evaluated three weeks after application
How it was run: as §1

wild oat [5] = test: Test Example 4: herbicidal effect by soil treatment (Table 19, symbol I); format: in vivo, wild oat (Avena fatua); settings: amount of applied herbicide 320 g/ha
How it was run: (§2)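 Emulsion of test compound, water-diluted to predetermined amount, sprayed on soil after sowing (seed depth ~1.5 cm, sterilized diluvial soil). Greenhouse, 25–30° C. Effect graded at three weeks post-spray.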

Chinese sprangletop = test: Test Example 3: herbicidal effect by foliage application, Wagner pot (Table 18, symbol D); format: in vivo, chinese sprangletop (Leptochloa chinensis)
How it was run: (§3)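 Plants were sown in alluvial soil held under 0.1–0.5 cm standing water and grown 14 days in a greenhouse at 25–30 °C. An emulsifiable formulation, water-diluted to the set dose, was then sprayed onto the foliage, and effects were scored three weeks later using previously defined criteria.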

southern crabgrass [6] = test: Test Example 4: herbicidal effect by soil treatment (Table 19, symbol F); format: in vivo, southern crabgrass (Digitaria ciliaris); settings: amount of applied herbicide 320 g/ha
How it was run: as §2

barnyard grass [7] = test: Test Example 4: herbicidal effect by soil treatment (Table 19, symbol H); format: in vivo, barnyard grass (Echinochloa crus-galli); settings: amount of applied herbicide 320 g/ha
How it was run: as §2

windgrass [8] = test: Test Example 4: herbicidal effect by soil treatment (Table 19, symbol L); format: in vivo, windgrass (Apera spica-venti); settings: amount of applied herbicide 320 g/ha
How it was run: as §2

green foxtail [9] = test: Test Example 5: herbicidal effect by foliage application, plastic box (Table 20, symbol G); format: in vivo, green foxtail (Setaria viridis); settings: evaluated three weeks after application
How it was run: as §1

persian speedwell [10] = test: Test Example 5: herbicidal effect by foliage application, plastic box (Table 20, symbol R); format: in vivo, Persian speedwell (Veronica persica); settings: evaluated three weeks after application
How it was run: as §1

Italian ryegrass [11] = test: Test Example 4: herbicidal effect by soil treatment (Table 19, symbol K); format: in vivo, Italian ryegrass (Lolium multiflorum); settings: amount of applied herbicide 320 g/ha
How it was run: as §2

velvetleaf [12] = test: Test Example 4: herbicidal effect by soil treatment (Table 19, symbol M); format: in vivo, velvetleaf (Abutilon theophrasti); settings: amount of applied herbicide 320 g/ha
How it was run: as §2

chickweed [13] = test: Test Example 5: herbicidal effect by foliage application, plastic box (Table 20, symbol P); format: in vivo, common chickweed (Stellaria media); settings: evaluated three weeks after application
How it was run: as §1

wild oat [14] = test: Test Example 5: herbicidal effect by foliage application, plastic box (Table 20, symbol I); format: in vivo, wild oat (Avena fatua); settings: evaluated three weeks after application
How it was run: as §1

blackgrass [15] = test: Test Example 5: herbicidal effect by foliage application, plastic box (Table 20, symbol J); format: in vivo, blackgrass (Alopecurus myosuroides); settings: evaluated three weeks after application
How it was run: as §1

rice flat sedge = test: Test Example 3: herbicidal effect by foliage application, Wagner pot (Table 18, symbol E); format: in vivo, rice flat sedge (Cyperus iria)
How it was run: as §3

Italian ryegrass [16] = test: Test Example 5: herbicidal effect by foliage application, plastic box (Table 20, symbol K); format: in vivo, Italian ryegrass (Lolium multiflorum); settings: evaluated three weeks after application
How it was run: as §1

persian speedwell [17] = test: Test Example 4: herbicidal effect by soil treatment (Table 19, symbol R); format: in vivo, Persian speedwell (Veronica persica); settings: amount of applied herbicide 320 g/ha
From the text: [Test Example 4] Herbicidal Effect Test by Soil Treatment
Sterilized diluvial soil was placed in a plastic box having a length of 21 cm, a width of 13 cm, and a depth of 7 cm. The seeds of each of southern crabgrass, green foxtail, barnyard grass, wild oat, blackgrass, Italian ryegrass, windgrass, velvetleaf, redroot pigweed, lambsquarters, chickweed, false cleavers, persian speedwell, corn, soybean, rice, wheat, beet, and rapeseed were sowed in a spot-like manner and covered with the soil having a thickness of about 1.5 cm. Subsequently, the emulsion agent of the compound of the present invention prepared according to Formulation Example 2 was diluted with water so as to achieve a predetermined herbicide amount, and the diluted emulsion agent was uniformly applied to the surface of the soil with a small-sized spray. The plastic box was placed in a greenhouse at 25° C. to 30° C. for growth of the plants. Three weeks after the herbicide application, the effect of the herbicide on each plant was evaluated according to the criteria of Test Example 1.

green foxtail [18] = test: Test Example 4: herbicidal effect by soil treatment (Table 19, symbol G); format: in vivo, green foxtail (Setaria viridis); settings: amount of applied herbicide 320 g/ha
How it was run: as §2

redroot pigweed [19] = test: Test Example 5: herbicidal effect by foliage application, plastic box (Table 20, symbol N); format: in vivo, redroot pigweed (Amaranthus retroflexus); settings: evaluated three weeks after application
How it was run: as §1

lambsquarters [20] = test: Test Example 4: herbicidal effect by soil treatment (Table 19, symbol O); format: in vivo, lambsquarters (Chenopodium album); settings: amount of applied herbicide 320 g/ha
How it was run: as §2

barnyard grass [21] = test: Test Example 3: herbicidal effect by foliage application, Wagner pot (Table 18, symbol H); format: in vivo, barnyard grass (Echinochloa crus-galli)
How it was run: as §3

redroot pigweed [22] = test: Test Example 4: herbicidal effect by soil treatment (Table 19, symbol N); format: in vivo, redroot pigweed (Amaranthus retroflexus); settings: amount of applied herbicide 320 g/ha
How it was run: as §2

windgrass [23] = test: Test Example 5: herbicidal effect by foliage application, plastic box (Table 20, symbol L); format: in vivo, windgrass (Apera spica-venti); settings: evaluated three weeks after application
How it was run: as §1

chickweed [24] = test: Test Example 4: herbicidal effect by soil treatment (Table 19, symbol P); format: in vivo, common chickweed (Stellaria media); settings: amount of applied herbicide 320 g/ha
How it was run: as §2

blackgrass [25] = test: Test Example 4: herbicidal effect by soil treatment (Table 19, symbol J); format: in vivo, blackgrass (Alopecurus myosuroides); settings: amount of applied herbicide 320 g/ha
How it was run: as §2

[26] = amount of applied herbicide 320 g/ha
[27] = amount of applied herbicide 320 g/ha, foliage application after 14-day growth

COCCOC(=O)Oc1c(C)nn(C)c(=O)c1-c1c(-c2ccc(F)cc2OC)sc2ccc(Cl)cc12 [2-114]
herbicidal effect on H: barnyard grass (barnyard grass [1]; foliage application, 320 g/ha): 3 (Herbicidal rate of 40% or more and less than 70%)
herbicidal effect on F: southern crabgrass (southern crabgrass [2]; foliage application, 320 g/ha): 0 (Herbicidal rate of 5% or less (almost no effect))
herbicidal effect on O: lambsquarters (lambsquarters [3]; foliage application, 320 g/ha): 3 (Herbicidal rate of 40% or more and less than 70%)
herbicidal effect on M: velvetleaf (velvetleaf [4]; foliage application, 320 g/ha): 3 (Herbicidal rate of 40% or more and less than 70%)
I: wild oat, herbicidal effect rating (wild oat [5]): 0 (Herbicidal rate of 5% or less (almost no effect))
herbicidal effect on D: Chinese sprangletop (Chinese sprangletop; [26]): 3 (Herbicidal rate of 40% or more and less than 70%)
F: southern crabgrass, herbicidal effect rating (southern crabgrass [6]): 0 (Herbicidal rate of 5% or less (almost no effect))
H: barnyard grass, herbicidal effect rating (barnyard grass [7]): 0 (Herbicidal rate of 5% or less (almost no effect))
L: windgrass, herbicidal effect rating (windgrass [8]): 0 (Herbicidal rate of 5% or less (almost no effect))
herbicidal effect on G: green foxtail (green foxtail [9]; foliage application, 320 g/ha): 1 (Herbicidal rate of 5% or more and less than 20%)
herbicidal effect on R: persian speedwell (persian speedwell [10]; foliage application, 320 g/ha): 3 (Herbicidal rate of 40% or more and less than 70%)
K: Italian ryegrass, herbicidal effect rating (Italian ryegrass [11]): 0 (Herbicidal rate of 5% or less (almost no effect))
M: velvetleaf, herbicidal effect rating (velvetleaf [12]): 0 (Herbicidal rate of 5% or less (almost no effect))
herbicidal effect on P: chickweed (chickweed [13]; foliage application, 320 g/ha): 5 (Herbicidal rate of 90% or more (almost completely withered))
herbicidal effect on I: wild oat (wild oat [14]; foliage application, 320 g/ha): 0 (Herbicidal rate of 5% or less (almost no effect))
herbicidal effect on J: blackgrass (blackgrass [15]; foliage application, 320 g/ha): 4 (Herbicidal rate of 70% or more and less than 90%)
herbicidal effect on E: rice flat sedge (rice flat sedge; [26]): 5 (Herbicidal rate of 90% or more (almost completely withered))
herbicidal effect on K: Italian ryegrass (Italian ryegrass [16]; foliage application, 320 g/ha): 0 (Herbicidal rate of 5% or less (almost no effect))
R: persian speedwell, herbicidal effect rating (persian speedwell [17]): 0 (Herbicidal rate of 5% or less (almost no effect))
G: green foxtail, herbicidal effect rating (green foxtail [18]): 0 (Herbicidal rate of 5% or less (almost no effect))
herbicidal effect on N: redroot pigweed (redroot pigweed [19]; foliage application, 320 g/ha): 1 (Herbicidal rate of 5% or more and less than 20%)
O: lambsquarters, herbicidal effect rating (lambsquarters [20]): 3 (Herbicidal rate of 40% or more and less than 70%)
herbicidal effect on H: barnyard grass (barnyard grass [21]; [26]): 4 (Herbicidal rate of 70% or more and less than 90%)
N: redroot pigweed, herbicidal effect rating (redroot pigweed [22]): 5 (Herbicidal rate of 90% or more (almost completely withered))
herbicidal effect on L: windgrass (windgrass [23]; foliage application, 320 g/ha): 4 (Herbicidal rate of 70% or more and less than 90%)
P: chickweed, herbicidal effect rating (chickweed [24]): 4 (Herbicidal rate of 70% or more and less than 90%)

COc1cc(F)ccc1-c1sc2cc(F)c(F)cc2c1-c1c(O)c(C)nn(C)c1=O [5-029]
Herbicidal effect by foliage application, H: barnyard grass (barnyard grass [1]; [27]): 5 (Herbicidal rate of 90% or more (almost completely withered))
Herbicidal effect by foliage application, F: southern crabgrass (southern crabgrass [2]; [27]): 3 (Herbicidal rate of 40% or more and less than 70%)
Herbicidal effect by foliage application, O: lambsquarters (lambsquarters [3]; [27]): 5 (Herbicidal rate of 90% or more (almost completely withered))
Herbicidal effect by foliage application, M: velvetleaf (velvetleaf [4]; [27]): 5 (Herbicidal rate of 90% or more (almost completely withered))
I: wild oat, herbicidal effect grade (wild oat [5]): 2 (Herbicidal rate of 20% or more and less than 40%)
herbicidal effect on Chinese sprangletop (D) (Chinese sprangletop; 320 g/ha): 4 (Herbicidal rate of 70% or more and less than 90%)
F: southern crabgrass, herbicidal effect grade (southern crabgrass [6]): 0 (Herbicidal rate of 5% or less (almost no effect))
H: barnyard grass, herbicidal effect grade (barnyard grass [7]): 0 (Herbicidal rate of 5% or less (almost no effect))
Herbicidal effect by foliage application, G: green foxtail (green foxtail [9]; [27]): 5 (Herbicidal rate of 90% or more (almost completely withered))
Herbicidal effect by foliage application, R: persian speedwell (persian speedwell [10]; [27]): 5 (Herbicidal rate of 90% or more (almost completely withered))
K: Italian ryegrass, herbicidal effect grade (Italian ryegrass [11]): 1 (Herbicidal rate of 5% or more and less than 20%)
M: velvetleaf, herbicidal effect grade (velvetleaf [12]): 3 (Herbicidal rate of 40% or more and less than 70%)
Herbicidal effect by foliage application, P: chickweed (chickweed [13]; [27]): 5 (Herbicidal rate of 90% or more (almost completely withered))
Herbicidal effect by foliage application, I: wild oat (wild oat [14]; [27]): 4 (Herbicidal rate of 70% or more and less than 90%)
Herbicidal effect by foliage application, J: blackgrass (blackgrass [15]; [27]): 4 (Herbicidal rate of 70% or more and less than 90%)
J: blackgrass, herbicidal effect grade (blackgrass [25]): 4 (Herbicidal rate of 70% or more and less than 90%)
herbicidal effect on rice flat sedge (E) (rice flat sedge; 320 g/ha): 5 (Herbicidal rate of 90% or more (almost completely withered))
Herbicidal effect by foliage application, K: Italian ryegrass (Italian ryegrass [16]; [27]): 4 (Herbicidal rate of 70% or more and less than 90%)
R: persian speedwell, herbicidal effect grade (persian speedwell [17]): 3 (Herbicidal rate of 40% or more and less than 70%)
G: green foxtail, herbicidal effect grade (green foxtail [18]): 3 (Herbicidal rate of 40% or more and less than 70%)
Herbicidal effect by foliage application, N: redroot pigweed (redroot pigweed [19]; [27]): 5 (Herbicidal rate of 90% or more (almost completely withered))
O: lambsquarters, herbicidal effect grade (lambsquarters [20]): 5 (Herbicidal rate of 90% or more (almost completely withered))
herbicidal effect on barnyard grass (H) (barnyard grass [21]; 320 g/ha): 4 (Herbicidal rate of 70% or more and less than 90%)
N: redroot pigweed, herbicidal effect grade (redroot pigweed [22]): 5 (Herbicidal rate of 90% or more (almost completely withered))
Herbicidal effect by foliage application, L: windgrass (windgrass [23]; [27]): 5 (Herbicidal rate of 90% or more (almost completely withered))
P: chickweed, herbicidal effect grade (chickweed [24]): 3 (Herbicidal rate of 40% or more and less than 70%)

Source: patent publication US20230085307A1, “PYRIDAZINONE COMPOUND AND HERBICIDE” (NISSAN CHEMICAL CORPORATION, priority 2019, published 2023)
